According to patent US20120172359A1 (NOVARTIS AG, priority 2010, published 2012):
Counter-ions that a name gives are not always drawn.

Molecular target: Human BACE-1 (Homo sapiens, UniProt P56817)
Assay: Test 1: Inhibition of Human BACE-1
Type: biochemical
Details: Test 1; recombinant BACE-1 (extracellular domain), acetate buffer pH 4.5, 1 hour with test compound at room temperature, fluorescence-quenched peptide substrate; read-out: Bace IC50

Human BACE-1, sequence (P56817 46-457 limits assumed): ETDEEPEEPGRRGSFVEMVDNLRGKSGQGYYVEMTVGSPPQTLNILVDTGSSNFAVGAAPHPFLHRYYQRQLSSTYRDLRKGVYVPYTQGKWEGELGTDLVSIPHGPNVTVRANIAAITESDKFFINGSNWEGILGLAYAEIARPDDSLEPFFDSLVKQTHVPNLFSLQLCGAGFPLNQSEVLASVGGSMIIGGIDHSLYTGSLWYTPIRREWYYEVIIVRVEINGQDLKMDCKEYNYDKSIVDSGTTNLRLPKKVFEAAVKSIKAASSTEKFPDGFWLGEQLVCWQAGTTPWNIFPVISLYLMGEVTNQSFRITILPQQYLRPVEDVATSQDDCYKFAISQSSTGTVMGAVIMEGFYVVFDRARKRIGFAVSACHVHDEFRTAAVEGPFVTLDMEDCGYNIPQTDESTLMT

Row | SMILES | IC50
1 | NC1=N[C@@](c2cc(NC(=O)c3ccc(Br)cn3)ccc2F)(C(F)F)CCOC1 [Example 97, 5-Bromo-pyridine-2-carboxylic acid[3-((S)-3-amino-5-difluoromethyl-2,5,6,7-tetrahydro-[1,4]oxazepin-5-yl)-4-fluoro-phenyl]-amide hydrochloride] | 18 nM
2 | N#Cc1ccc(C(=O)Nc2ccc(F)c(C3(C(F)(F)F)CCOCC(N)=N3)c2)nc1 (stereo not drawn) [Example 98, 5-Cyano-pyridine-2-carboxylic acid [3-(3-amino-5-trifluoromethyl-2,5,6,7-tetrahydro-[1,4]oxazepin-5-yl)-4-fluoro-phenyl]-amide hydrochloride] | 240 nM
3 | CC1(c2cc(NC(=O)c3ccc(Br)cn3)ccc2F)N=C(N)COCC1(F)F (stereo not drawn) [Example 101, 5-Bromo-pyridine-2-carboxylic acid [3-(3-amino-6,6-difluoro-5-methyl-2,5,6,7-tetrahydro-[1,4]oxazepin-5-yl)-4-fluoro-phenyl]-amide] | 30 nM
4 | NC1=NC(c2cccc(NC(=O)c3cc(Br)co3)c2)(C(F)F)COC1 (stereo not drawn) [Example 102, 4-Bromo-furan-2-carboxylic acid [3-(5-amino-3-difluoromethyl-3,6-dihydro-2H-[1,4]oxazin-3-yl)-phenyl]-amide hydrochloride] | 890 nM
5 | NC1=NC(c2cccc(NC(=O)c3ccc(O)nn3)c2)(C(F)F)COC1 (stereo not drawn) [Example 103, 6-Hydroxy-pyridazine-3-carboxylic acid [3-(5-amino-3-difluoromethyl-3,6-dihydro-2H-[1,4]oxazin-3-yl)-phenyl]-amide hydrochloride] | 7800 nM
6 | CCc1nc(C(=O)Nc2cccc(C3(C(F)F)COCC(N)=N3)c2)co1 (stereo not drawn) [Example 105, 2-Ethyl-oxazole-4-carboxylic acid [3-(5-amino-3-difluoromethyl-3,6-dihydro-2H-[1,4]oxazin-3-yl)-phenyl]-amide hydrochloride] | 5200 nM
7 | Cc1nc(C(=O)Nc2cccc(C3(C(F)F)COCC(N)=N3)c2)c(C)o1 (stereo not drawn) [Example 106, 2,5-Dimethyl-oxazole-4-carboxylic acid [3-(5-amino-3-difluoromethyl-3,6-dihydro-2H-[1,4]oxazin-3-yl)-phenyl]-amide hydrochloride] | 4000 nM
8 | COc1cc(Br)cnc1C(=O)Nc1cccc(C2(C(F)F)COCC(N)=N2)c1 (stereo not drawn) [Example 107, 5-Bromo-3-methoxy-pyridine-2-carboxylic acid [3-(5-amino-3-difluoromethyl-3,6-dihydro-2H-[1,4]oxazin-3-yl)-phenyl]-amide hydrochloride] | 820 nM
9 | NC1=NC(c2cccc(NC(=O)c3ncc(Br)cc3O)c2)(C(F)F)COC1 (stereo not drawn) [Example 108, 5-Bromo-3-hydroxy-pyridine-2-carboxylic acid [3-(5-amino-3-difluoromethyl-3,6-dihydro-2H-[1,4]oxazin-3-yl)-phenyl]-amide hydrochloride] | 28 nM
10 | COCCOc1cnc(C(=O)Nc2cccc(C3(C(F)F)COCC(N)=N3)c2)cn1 (stereo not drawn) [Example 109, hydrochloride] | 1200 nM
11 | NC1=NC(c2cccc(NC(=O)c3cnc(C(F)F)cn3)c2)(C(F)F)COC1 (stereo not drawn) [Example 110, 5-Difluoromethyl-pyrazine-2-carboxylic acid [3-(5-amino-3-difluoromethyl-3,6-dihydro-2H-[1,4]oxazin-3-yl)-phenyl]-amide hydrochloride] | 1900 nM
12 | NC1=N[C@@](c2cc(NC(=O)c3ncc(Cl)cc3Cl)ccc2F)(C(F)F)COC1 [Example 111, 3,5-Dichloro-pyridine-2-carboxylic acid [3-((R)-5-amino-3-difluoromethyl-3,6-dihydro-2H-[1,4]oxazin-3-yl)-4-fluoro-phenyl]-amide hydrochloride] | 25 nM
13 | NC1=N[C@@](c2cc(NC(=O)c3ncc(F)cc3F)ccc2F)(C(F)F)COC1 [Example 113, 3,5-Difluoro-pyridine-2-carboxylic acid [3-((R)-5-amino-3-difluoromethyl-3,6-dihydro-2H-[1,4]oxazin-3-yl)-4-fluoro-phenyl]-amide hydrochloride] | 120 nM
14 | Cc1c(C(=O)Nc2ccc(F)c([C@]3(C(F)F)COCC(N)=N3)c2)oc2ccc(Br)cc12 [Example 114, 5-Bromo-3-methyl-benzofuran-2-carboxylic acid [3-((R)-5-amino-3-difluoromethyl-3,6-dihydro-2H-[1,4]oxazin-3-yl)-4-fluoro-phenyl]-amide hydrochloride] | 6 nM
15 | Cl.[2H]c1nc(C(=O)Nc2ccc(F)c([C@]3(C(F)F)COCC(N)=N3)c2)c(C([2H])([2H])[2H])c([2H])c1Cl [Example 115, 5-Chloro-4,6-dideutero-3-trideuteromethyl-pyridine-2-carboxylic acid [3-((R)-5-amino-3-difluoromethyl-3,6-dihydro-2H-[1,4]oxazin-3-yl)-4-fluoro-phenyl]-amide hydrochloride] | 6 nM
16 | NC1=N[C@@](c2cc(NC(=O)c3ncc(Br)cc3Cl)ccc2F)(C(F)F)COC1 [Example 117, 5-Bromo-3-chloro-pyridine-2-carboxylic acid [3-((R)-5-amino-3-difluoromethyl-3,6-dihydro-2H-[1,4]oxazin-3-yl)-4-fluoro-phenyl]-amide hydrochloride] | 18 nM
17 | NC1=N[C@@](c2cc(NC(=O)c3ccc(Br)cn3)ccc2F)(C(F)F)COC1 [Example 118, 5-Bromo-pyridine-2-carboxylic acid [3-((R)-5-amino-3-difluoromethyl-3,6-dihydro-2H-[1,4]oxazin-3-yl)-4-fluoro-phenyl]-amide hydrochloride] | 14 nM
18 | NC1=N[C@@](c2cc(NC(=O)c3ncc(Br)cc3O)ccc2F)(C(F)F)COC1 [Example 119, 5-Bromo-3-hydroxy-pyridine-2-carboxylic acid [3-((R)-5-amino-3-difluoromethyl-3,6-dihydro-2H-[1,4]oxazin-3-yl)-4-fluoro-phenyl]-amide hydrochloride] | 10 nM
19 | CCOc1ccc(C(=O)Nc2ccc(F)c([C@]3(C(F)F)COCC(N)=N3)c2)nc1 [Example 120, 5-Ethoxy-pyridine-2-carboxylic acid [3-((R)-5-amino-3-difluoromethyl-3,6-dihydro-2H-[1,4]oxazin-3-yl)-4-fluoro-phenyl]-amide] | 180 nM
20 | NC1=N[C@@](c2cc(NC(=O)c3ncc(Br)cn3)ccc2F)(C(F)F)COC1 [Example 121, 5-Bromo-pyrimidine-2-carboxylic acid [3-((R)-5-amino-3-difluoromethyl-3,6-dihydro-2H-[1,4]oxazin-3-yl)-4-fluoro-phenyl]-amide hydrochloride] | 36 nM
21 | NC1=N[C@@](c2cc(NC(=O)c3cnc(C(F)F)cn3)ccc2F)(C(F)F)COC1 [Example 122, 5-Difluoromethyl-pyrazine-2-carboxylic acid [3-((R)-5-amino-3-difluoromethyl-3,6-dihydro-2H-[1,4]oxazin-3-yl)-4-fluoro-phenyl]-amide hydrochloride] | 200 nM
22 | NC1=N[C@@](c2cc(NC(=O)c3cnc(OCC(F)F)cn3)ccc2F)(C(F)F)COC1 [Example 123, 5-(2,2-Difluoro-ethoxy)-pyrazine-2-carboxylic acid [3-((R)-5-amino-3-difluoromethyl-3,6-dihydro-2H-[1,4]oxazin-3-yl)-4-fluoro-phenyl]-amide hydrochloride] | 97 nM
23 | NC1=N[C@@](c2cc(NC(=O)c3cnc(OCC(F)(F)F)cn3)ccc2F)(C(F)F)COC1 [Example 124, 5-(2,2,2-Trifluoro-ethoxy)-pyrazine-2-carboxylic acid [3-((R)-5-amino-3-difluoromethyl-3,6-dihydro-2H-[1,4]oxazin-3-yl)-4-fluoro-phenyl]-amide hydrochloride] | 25 nM
24 | NC1=N[C@@](c2cc(NC(=O)c3cc(Br)co3)ccc2F)(C(F)F)COC1 [Example 125, 4-Bromo-furan-2-carboxylic acid [3-((R)-5-amino-3-difluoromethyl-3,6-dihydro-2H-[1,4]oxazin-3-yl)-4-fluoro-phenyl]-amide hydrochloride] | 78 nM
25 | NC1=N[C@@](c2cc(NC(=O)c3cc4ccccn4n3)ccc2F)(C(F)F)COC1 [Example 126, Pyrazolo[1,5-a]pyridine-2-carboxylic acid [3-((R)-5-amino-3 difluoromethyl-3,6-dihydro-2H [1,4]oxazin-3-yl)-4-fluoro-phenyl]-amide hydrochloride] | 740 nM
26 | Cc1nc(C(=O)Nc2ccc(F)c([C@]3(C(F)F)COCC(N)=N3)c2)co1 [Example 127, 2-Methyl-oxazole-4-carboxylic acid [3-((R)-5-amino-3-difluoromethyl-3,6-dihydro-2H-[1,4]oxazin-3-yl)-4-fluoro-phenyl]-amide hydrochloride] | 98 nM
27 | Cc1nc(C(=O)Nc2ccc(F)c([C@]3(C(F)F)COCC(N)=N3)c2)c(C)o1 [Example 128, 2,5-Dimethyl-oxazole-4-carboxylic acid [3-((R)-5-amino-3-difluoromethyl-3,6-dihydro-2H-[1,4]oxazin-3-yl)-4-fluoro-phenyl]-amide] | 170 nM
28 | COc1cc(Br)cnc1C(=O)Nc1ccc(F)c([C@]2(C(F)F)COCC(N)=N2)c1 [Example 130, 5-Bromo-3-methoxy-pyridine-2-carboxylic acid [3-((R)-5-amino-3-difluoromethyl-3,6-dihydro-2H-[1,4]oxazin-3-yl)-4-fluoro-phenyl]-amide hydrochloride] | 93 nM
29 | CCc1nc(C(=O)Nc2ccc(F)c([C@]3(C(F)F)COCC(N)=N3)c2)co1 [Example 131, 2-Ethyl-oxazole-4-carboxylic acid [3-((R)-5-amino-3-difluoromethyl-3,6-dihydro-2H-[1,4]oxazin-3-yl)-4-fluoro-phenyl]-amide hydrochloride] | 330 nM
30 | NC1=N[C@@](c2cc(NC(=O)c3ccc(C(F)F)cn3)ccc2F)(C(F)F)COC1 [Example 132, 5-Difluoromethyl-pyridine-2-carboxylic acid [3-((R)-5-amino-3-difluoromethyl-3,6-dihydro-2H-[1,4]oxazin-3-yl)-4-fluoro-phenyl]-amide hydrochloride] | 87 nM
